According to publication PMC7297445, “Pharmacokinetic/Pharmacodynamic Determination and Preclinical Pharmacokinetics of the β-Lactamase Inhibitor ETX1317 and Its Orally Available Prodrug ETX0282” (ACS Infectious Diseases, 2020):

Assays:
Assay in all cases: Hollow-fiber infection model (HFIM), dose fractionation
Type in all cases: cell-based
Conditions in all cases: with CPD
[1] = tested on: E. coli ARC2687
Procedure: (§1) The PK/PD driver of ETX1317 was assessed in the presence of CPD in both hollow-fiber[28]−[31] and chemostat[32]in vitro infection model systems. In all cases, CPD was administered q12h via a 2 h infusion and eliminated with a 2 h half-life, with the concentration of drug exceeding the MIC (the MIC of CPD in the presence of ETX1317 at a 1:2 ratio) for 50% of the dosing interval for each strain. Representative Emax plots are shown graphically for Escherichia coli ARC2687 in the hollow-fiber model and Klebsiella pneumoniae ARC4420 in the chemostat system (Figure 2). […] This could partially be attributed to the distribution of the concentration ranges utilized for the hollow-fiber infection model (HFIM) where most of the data scatter occurred in the efficacious dose range for lower MIC strains. It is important to note that initial evaluation of K. pneumoniae ARC4420 and ARC5118 was completed in the HFIM but rapid degradation of CPD, presumably through accumulation of β-lactamases in the extra-capillary space of the cartridge precluded a reliable assessment of the PK/PD driver with these strains in this model.[32] […] In both the HFIM and chemostat models the optimum critical threshold of ETX1317 was established through iterative Emax fitting of a range of ETX1317 concentrations from 0.5× to 2× the CPD:ETX1317 MIC value. In the HFIM, %Time > ETX1317 CT of 2× MIC provided the highest correlation to observed activity which appeared to be independent to the apparent intrinsic activity of ETX1317 (as reflected by ETX1317 MICBLI of K. pneumoniae ARC4486 vs ARC4488). […] In both models CPD infused alone mimicked vehicle control as expected with similar growth of +2 to 4 log10 CFU/mL.
(§2) Enterobacteriaceae isolates E. coli ARC2687 and K. pneumoniae isolates ARC4486, ARC4488, ARC5118, and ARC4420 were prepared for infection from an overnight plate culture. On the day of the experiment, a few colonies of bacteria were inoculated in Mueller Hinton Broth II (MHBII, Sigma-Aldrich, St. Louis, MO) and incubated at 35 °C until reaching log-phase growth, about 1 h. In hollow-fiber studies cell population density is confirmed by turbidimetric assay (OD600) and final dilution is adjusted to deliver approximately 15 mL of bacteria (1 × 10^6 CFU/mL) to the extra-capillary space of the hollow-fiber cartridge (Fibercell Systems, Inc., Frederick, MD). After 1 h, targeted drug concentrations were introduced using a 2 h infusion via a syringe pump (Harvard Apparatus, Holliston, MA). For chemostat experiments approximately 1 mL of bacteria (1 × 10^8 CFU/mL) were introduced to the chemostat reservoir bottle with 100 mL MHBII to dilute bacterial culture and reach a target CFU density of 1 × 10^6 CFU/mL. After 5 min, each chemostat bottle was exposed to targeted drug with a 2 h infusion administered via syringe pump.
(§3) ETX1317 and CPD were dissolved in MHBII (accounting for potency) and delivered as a 2 h infusion via syringe pump (Harvard Apparatus, Holliston, MA). Solubility and stability were confirmed at room temperature for the experiment. Dose formulation potency was verified by LC/MS/MS.
(§4) Dose range and dose fractionation were performed in hollow-fiber infection model (HFIM) and chemostat (one-compartment) in vitro infection model. Bacteria treated with media only (growth control) and dose arms spanning a 64-fold exposure range of drug delivered within regimens of q6h, q12h, and q24h were used. E. coli ARC2687 and K. pneumoniae ARC4486 and ARC4488 were completed in the HFIM. K. pneumoniae ARC5118 and ARC4420 were studied in the chemostat system. CPD concentrations were targeted to achieve exposure of ∼50%Time > MIC determined in the presence of ETX1317. Both CPD and ETX1317 were administered via a 2 h infusion from syringe pumps (Harvard Apparatus) to mimic the approximate Cmax following oral absorption observed clinically for CDP. […]

[2] = tested on: K. pneumoniae ARC4488
Procedure: as §1, §2, §3, §4

[3] = tested on: K. pneumoniae ARC4486
Procedure: as §1, §2, §3, §4

SMILES: CC1=C[C@@H](C(N)=O)N2C[C@@H]1N(O[C@H](F)C(=O)O)C2=O [ETX1317]
- %Time > CT of 1 μg/mL for 1–log10 kill [1]: 14%
- %Time > CT of 1 μg/mL for stasis [1]: 7%
- %Time > CT of 1 μg/mL for 1–log10 kill [2]: 47%
- %Time > CT of 1 μg/mL for stasis [2]: 43%
- %Time > CT of 1 μg/mL for 1–log10 kill [3]: 49%
- %Time > CT of 1 μg/mL for stasis [3]: 37%
